Measurements published in patent US10793542B2, “Hetroarylamine compounds for modulating the hedgehog pathway and preparing method and uses thereof” (DEVELOPMENT CENTER FOR BIOTECHNOLOGY, priority 2016, dated 2020).

Columns and labels:
Assay type in all cases: cell-based
Smo wild type = molecular target: T1, Smo wild type (Homo sapiens, UniProt Q99835); test: Reporter assay of C3H10T1/2-Gli-Luc cells transfected with wild-type Smo, without SAG; details: C3H10T1/2 cells transfected with pLPCX-SMO, no SAG, 48 hr; read-out: Inhibition of C3H10T1/2-Gli-Luc-Smo-WT [IC50
T1 construct: expressed in transfected cells; host or cells: C3H10T1/2 cells (ATCC CCL-226), transient transfection with pLPCX-SMO
Description: (§1) A transient transfection system with a Smo wild type or a Smo D473H mutant was also used for compound screening. For the SMO inhibition experiments, cells were transfected with an additional 500 ng/well of wild-type or D473H-mutant type SMO construct (pLPCX-SMO or pLPCX-SMO-D473H). After 24 h, transfected cells were collected by trypsin treatment and re-plated in 96-well plates in an RPMI medium containing 0.5% FBS with a density of 1.5×10^4 cells/well. Compounds were dissolved in DMSO with serial dilutions and were then added to the assay plate. The assay plates were incubated at 37° C. for 48 hr.
(§2) Firefly luciferase and Renilla luciferase activity was determined using the Dual-Glo Luciferase reporter assay system (Promega) with a Victor3 plate reader (PerkinElmer Life Sciences). Firefly luciferase readings were normalized to Renilla luciferase to correct for transfection efficiency. Luminance reading for the C3H10T1/2-Gli-Luc assay was normalized based on DMSO control with SAG stimulation (100% pathway activity) and without SAG stimulation (0% pathway activity). IC50 values, defined as the inflection point of the logistic curve, were determined by nonlinear regression using the Prism 5 software (GraphPad).
(§3) The reporter assay of C3H10T1/2-Gli-Luc cells transfected with a wild-type, D473H mutant Smo mutant was carried out with the same protocol but without SAG stimulation. Luminance reading for the SMO inhibition experiments assay was normalized based on DMSO control (100% of the pathway activity) and a known Smo antagonist (ALLO-2 at 10 μM, 0% of the pathway activity).

[1] = test system: hedgehog pathway (pGL3-7xGli-Luciferase reporter in C3H10T1/2 cells); test: Transient transfection of C3H10T1/2 and Gli-Luc reporter assay with SAG stimulation; details: Mus musculus, C3H 10T1/2, SAG 20 nM, 48 hr, read-out: Inhibition of Gli-Luc expression [IC50
Description: A cell-based screen for inhibitors of the hedgehog pathway was performed using a transient transfection system in C3H10T1/2 cells with pGL3-7xGli-Luciferase reporter plasmids C3H10T1/2 cells (ATCC, cat.#CCL-226) were seeded into 6-well plates at 8×10^4 cells/well in a BME medium containing 10% heat-inactivated FBS. Cells were transfected the next morning with 500 ng/well pGL3-7xGli-Luciferase reporter plasmids and 100 ng/well pRL-TK Renilla luciferase reporter plasmids (Promega)using GeneJuice transfection reagent (Novagene). After 24 h, transfected cells were collected by trypsin treatment and re-plated in 96-well plates in an RPMI medium containing 0.5% FBS with a density of 1.5×10^4 cells/well. Compounds were dissolved in DMSO with serial dilutions and were then added to the assay plate. SAG (Hh-Ag 1.3) (Santa Cruz) was added to the assay plated for a final concentration 20 nM. The assay plates were incubated at 37° C. for 48 hr.
as §2

Smo D473H mutant = molecular target: T2, Smo D473H mutant (Homo sapiens, UniProt Q99835, D473H); test: Reporter assay of C3H10T1/2-Gli-Luc cells transfected with Smo D473H mutant, without SAG; details: C3H10T1/2 cells transfected with pLPCX-SMO-D473H, no SAG, 48 hr; read-out: Inhibition of C3H10T1/2-Gli-Luc-Smo-D473H [IC50
T2 construct: expressed in transfected cells; host or cells: C3H10T1/2 cells (ATCC CCL-226), transient transfection with pLPCX-SMO-D473H
Description: as §1, §2, §3

T2 sequence (Q99835 28-787 D473H): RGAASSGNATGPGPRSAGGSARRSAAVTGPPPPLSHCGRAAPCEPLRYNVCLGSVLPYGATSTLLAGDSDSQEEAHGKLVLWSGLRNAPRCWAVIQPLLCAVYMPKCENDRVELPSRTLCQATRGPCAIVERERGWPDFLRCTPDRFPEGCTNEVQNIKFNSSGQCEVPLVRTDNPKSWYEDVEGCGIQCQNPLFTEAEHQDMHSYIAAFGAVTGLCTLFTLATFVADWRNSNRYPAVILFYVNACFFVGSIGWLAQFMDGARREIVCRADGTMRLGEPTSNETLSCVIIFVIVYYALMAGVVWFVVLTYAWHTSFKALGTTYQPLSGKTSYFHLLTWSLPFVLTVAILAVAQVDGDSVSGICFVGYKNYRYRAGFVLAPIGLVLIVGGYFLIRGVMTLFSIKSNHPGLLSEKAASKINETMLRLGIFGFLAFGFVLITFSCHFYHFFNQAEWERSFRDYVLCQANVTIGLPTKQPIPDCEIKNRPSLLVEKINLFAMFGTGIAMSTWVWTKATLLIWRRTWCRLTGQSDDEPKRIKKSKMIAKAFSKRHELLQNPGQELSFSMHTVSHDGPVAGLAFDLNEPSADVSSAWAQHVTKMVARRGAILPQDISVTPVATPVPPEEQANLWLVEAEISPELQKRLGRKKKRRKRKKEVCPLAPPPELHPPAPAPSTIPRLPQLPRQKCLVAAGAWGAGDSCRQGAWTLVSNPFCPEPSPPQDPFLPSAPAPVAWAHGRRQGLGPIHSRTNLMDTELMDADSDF
T1 sequence (Q99835 28-787): as the sequence (Q99835 28-787 D473H) above, with H446D counted along it

Structure (SMILES)	IC50 (Smo wild type)	IC50 [1]	IC50 (Smo D473H mutant)
CSc1cnc(Nc2ccc(C(=O)Nc3cc(CN4CCOCC4)ccc3C)cc2)nc1-c1ccc(C(F)(F)F)cc1 [Compound 27, N-(2-Methyl-5-morpholin-4-ylmethyl-phenyl)-4-[5-methylsulfanyl-4-(4-tiifluoromethyl-phenyl)-pyrimidin-2-ylamino]-benzamide]	< 0.1 µM	< 0.1 µM	0.1 to 1 µM
COc1cccc(OC)c1NC(=O)c1ccc(Nc2ncc(SC)c(-c3cccnc3F)n2)c(F)c1 [Compound 13, N-(2,6-Dimethoxy-phenyl)-3-fluoro-4-[4-(2-fluoro-pyridin-3-yl)-5-methylsulfanyl-pyrimidin-2-ylamino]-benzamide]	0.1 to 1 µM	0.1 to 1 µM	0.1 to 1 µM
COc1cnc(Nc2ccc(C(=O)Nc3cc(CN4CCOCC4)ccc3C)cc2)nc1-c1ccc(C#N)cc1 [Compound 49, 4-[4-(4-Cyano-phenyl)-5-methoxy-pyrimidin-2-ylamino]-N-(2-methyl-5-morpholin-4-ylmethyl-phenyl)-benzamide]	0.1 to 1 µM	0.1 to 1 µM	> 1 µM
CSc1cnc(Nc2ccc(C(=O)Nc3cc(CN4CCN(C)CC4)ccc3C)cc2F)nc1-c1cnn(C)c1 [Compound 46, 3-Fluoro-N-[2-methyl-5-(4-methyl-piperazin-1-ylmethyl)-phenyl]-4-[4-(1-methyl-1H-pyrazol-4-yl)-5-methylsulfanyl-pyrimidin-2-ylamino]-benzamide]	< 0.1 µM	< 0.1 µM	0.1 to 1 µM
CCN(CC)Cc1ccc(C)c(NC(=O)c2ccc(Nc3ncc(SC)c(-c4ccc(OC(F)(F)F)cc4)n3)nc2)c1 [Compound 66, N-(5-Diethylaminomethyl-2-methyl-phenyl)-6-[5-methylsulfanyl-4-(4-trifluoromethoxy-phenyl)-pyrimidin-2-ylamino]-nicotinamide]	< 0.1 µM	< 0.1 µM	0.1 to 1 µM
CCN(CC)Cc1ccc(C)c(NC(=O)c2ccc(Nc3ncc(OC)c(-c4ccc(C#N)cc4)n3)cc2)c1 [Compound 50, 4-[4-(4-Cyano-phenyl)-5-methoxy-pyrimidin-2-ylamino]-N-(5-diethylaminomethyl-2-methyl-phenyl)-benzamide]	< 0.1 µM	< 0.1 µM	0.1 to 1 µM
CSc1cnc(Nc2ccc(C(=O)Nc3c(C)cccc3C)cc2)nc1-c1cccnc1F [Compound 6, N-(2,6-Dimethyl-phenyl)-4-[4-(2-fluoro-pyridin-3-yl)-5-methylsulfanyl-pyrimidin-2-ylamino]-benzamide]	< 0.1 µM	< 0.1 µM	< 0.1 µM
CCN(CC)Cc1ccc(C)c(NC(=O)c2ccc(Nc3ncc(OC)c(-c4ccc(OC(F)(F)F)cc4)n3)c(F)c2)c1 [Compound 61, N-(5-Diethylaminomethyl-2-methyl-phenyl)-3-fluoro-4-[5-methoxy-4-(4-trifluoromethoxy-phenyl)-pyrimidin-2-ylamino]-benzamide]	< 0.1 µM	< 0.1 µM	0.1 to 1 µM
CSc1cnc(Nc2ccc(C(=O)Nc3cc(CN4CCN(C)CC4)ccc3C)cc2)nc1-c1ccc(OC(F)(F)F)cc1 [Compound 37, N-[2-Methyl-5-(4-methyl-piperazin-1-ylmethyl)-phenyl]-4-[5-methylsulfanyl-4-(4-trifluoromethoxy-phenyl)-pyrimidin-2-ylamino]-benzamide]	< 0.1 µM	< 0.1 µM	0.1 to 1 µM
CSc1cnc(Nc2ccc(C(=O)Nc3cc(CN4CCNCC4)ccc3C)cc2F)nc1-c1ccc(F)cc1 [Compound 78, 3-Fluoro-4-[4-(4-fluoro-phenyl)-5-methylsulfanyl-pyrimidin-2-ylamino]-N-(2-methyl-5-piperazin-1-ylmethyl-phenyl)-benzamide]	0.1 to 1 µM	0.1 to 1 µM	0.1 to 1 µM
CSc1cnc(Nc2ccc(C(=O)Nc3cc(CN4CCN(C)CC4)ccc3C)cc2)nc1-c1ccc(F)cc1 [Compound 36, 4-[4-(4-Fluoro-phenyl)-5-methylsulfanyl-pyrimidin-2-ylamino]-N-[2-methyl-5-(4-methyl-piperazin-1-ylmethyl)-phenyl]-benzamide]	< 0.1 µM	< 0.1 µM	0.1 to 1 µM

Other lines, results leading:

IC50 (Smo wild type)	IC50 [1]	IC50 (Smo D473H mutant)	Structure (SMILES)
0.1 to 1 µM	0.1 to 1 µM	0.1 to 1 µM	CSc1cnc(Nc2ccc(C(=O)Nc3c(C)cccc3C)cc2)nc1-c1ccc(F)cc1 [Compound 29, N-(2,6-Dimethyl-phenyl)-4-[4-(4-fluoro-phenyl)-5-methylsulfanyl-pyrimidin-2-ylamino]-benzamide]
< 0.1 µM	< 0.1 µM	< 0.1 µM	CSc1cnc(Nc2ccc(C(=O)Nc3cc(CN4CCOCC4)ccc3F)cc2F)nc1-c1ccc(OC(F)(F)F)cc1 [Compound 55, 3-Fluoro-N-(2-fluoro-5-morpholin-4-ylmethyl-phenyl)-4-[5-methylsulfanyl-4-(4-trifluoromethoxy-phenyl)-pyrimidin-2-ylamino]-benzamide]
< 0.1 µM	< 0.1 µM	0.1 to 1 µM	CSc1cnc(Nc2ccc(C(=O)Nc3cc(CN4CCOCC4)ccc3F)cc2F)nc1-c1ccc(F)cc1 [Compound 57, 3-Fluoro-N-(2-fluoro-5-morpholin-4-ylmethyl-phenyl)-4-[4-(4-fluoro-phenyl)-5-methylsulfanyl-pyrimidin-2-ylamino]-benzamide]
0.1 to 1 µM	0.1 to 1 µM	0.1 to 1 µM	CSc1cnc(Nc2ccc(C(=O)Nc3c(C)cccc3C)cc2F)nc1-c1cccnc1F [Compound 12, N-(2,6-Dimethyl-phenyl)-3-fluoro-4-[4-(2-fluoro-pyridin-3-yl)-5-methylsulfanyl-pyrimidin-2-ylamino]-benzamide]
< 0.1 µM	< 0.1 µM	< 0.1 µM	CCOc1cnc(Nc2ccc(C(=O)Nc3cc(CN4CCOCC4)ccc3C)cc2)nc1-c1ccc(OC(F)(F)F)cc1 [Compound 72, 4-[5-Ethoxy-4-(4-trifluoromethoxy-phenyl)-pyrimidin-2-ylamino]-N-(2-methyl-5-morpholin-4-ylmethyl-phenyl)-benzamide]
< 0.1 µM	< 0.1 µM	0.1 to 1 µM	CSc1cnc(Nc2ccc(C(=O)Nc3cc(CN(C)C)ccc3C)cc2)nc1-c1ccc(F)cc1 [Compound 31, N-(5-Dimethylaminomethyl-2-methyl-phenyl)-4-[4-(4-fluoro-phenyl)-5-methylsulfanyl-pyrimidin-2-ylamino]-benzamide]
0.1 to 1 µM	0.1 to 1 µM	0.1 to 1 µM	CSc1cnc(Nc2ccc(C(=O)Nc3ccccc3C)cc2)nc1-c1ccccc1 [Compound 19, 4-(5-Methylsulfanyl-4-phenyl-pyrimidin-2-ylamino)-N-o-tolyl-benzamide]
< 0.1 µM	< 0.1 µM	< 0.1 µM	CSc1cnc(Nc2ccc(C(=O)Nc3cc(CN4CCOCC4)ccc3C)cc2)cc1-c1ccc(OC(F)(F)F)cc1 [Compound 81, N-(2-Methyl-5-morpholin-4-ylmethyl-phenyl)-4-[5-methylsulfanyl-4-(4-trifluoromethoxy-phenyl)-pyridin-2-ylamino)-benzamide]
< 0.1 µM	< 0.1 µM	0.1 to 1 µM	CSc1cnc(Nc2ccc(C(=O)Nc3cccc(CN4CCOCC4)c3)cc2)nc1-c1ccc(OC(F)(F)F)cc1 [Compound 65, 4-[5-Methylsulfanyl-4-(4-trifluoromethoxy-phenyl)-pyrimidin-2-ylamino]-N-(3-morpholin-4-ylmethyl-phenyl)-benzamide]
